Reference: ChEMBL document CHEMBL1126858, “Synthesis of (R,S)-trans-8-hydroxy-2-[N-n-propyl-N-(3'-iodo-2'-propenyl)amino]tetral in (trans-8-OH-PIPAT): a new 5-HT1A receptor ligand” (J Med Chem, 1993)

Columns and labels:
[1] = Hill coefficient of the compound; format: ADME
[2] = molecular target: T1, 5-hydroxytryptamine receptor 1A (Rattus norvegicus, UniProt P19327); test: Binding affinity towards 5-hydroxytryptamine 1A receptor by the displacement of [125I]trans-8-OH-PIPAT in membrane homogenates of hippocampal tissue of rat brain; format: tissue-based, Hippocampus
T1 sequence (P19327 whole entry): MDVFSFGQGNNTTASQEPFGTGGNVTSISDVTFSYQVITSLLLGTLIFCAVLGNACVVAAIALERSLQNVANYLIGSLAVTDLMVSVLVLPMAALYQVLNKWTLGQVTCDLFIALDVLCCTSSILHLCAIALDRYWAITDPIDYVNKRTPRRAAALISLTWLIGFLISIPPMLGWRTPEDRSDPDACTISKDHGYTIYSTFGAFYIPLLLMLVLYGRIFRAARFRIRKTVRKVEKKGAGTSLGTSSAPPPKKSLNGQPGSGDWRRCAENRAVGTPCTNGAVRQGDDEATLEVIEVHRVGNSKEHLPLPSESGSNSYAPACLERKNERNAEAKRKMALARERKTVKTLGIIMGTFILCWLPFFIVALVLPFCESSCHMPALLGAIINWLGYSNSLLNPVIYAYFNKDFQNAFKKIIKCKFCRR

[3] = molecular target: D(3) dopamine receptor (Rattus norvegicus, UniProt P19020); test: Inhibitory activity against [125I]- NCQ298 binding to dopamine receptor D3 in Sf 9 cells; format: cell-based
[4] = species: Rattus norvegicus; test: Inhibitory activity against (125I)-(R,S)-trans-8-OH-PIPAT binding to the rat hippocampal homogenate; format: functional, Hippocampus
[5] = molecular target: D(2) dopamine receptor (Homo sapiens, UniProt P14416); test: Inhibitory activity against [125I]- NCQ298 binding to dopamine receptor D2 in Sf 9 cells; format: cell-based
Sequence of D(2) dopamine receptor (P14416 whole entry): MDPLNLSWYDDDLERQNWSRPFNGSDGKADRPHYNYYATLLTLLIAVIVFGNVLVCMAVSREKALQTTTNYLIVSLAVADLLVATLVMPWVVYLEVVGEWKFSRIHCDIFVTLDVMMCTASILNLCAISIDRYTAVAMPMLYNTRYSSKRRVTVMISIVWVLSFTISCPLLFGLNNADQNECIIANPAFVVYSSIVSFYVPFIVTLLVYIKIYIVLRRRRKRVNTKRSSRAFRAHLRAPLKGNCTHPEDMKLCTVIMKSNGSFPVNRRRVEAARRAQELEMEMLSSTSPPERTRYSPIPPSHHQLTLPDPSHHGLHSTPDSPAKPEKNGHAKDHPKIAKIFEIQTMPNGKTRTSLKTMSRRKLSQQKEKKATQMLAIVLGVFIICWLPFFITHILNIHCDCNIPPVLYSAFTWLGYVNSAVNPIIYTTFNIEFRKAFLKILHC

Sequence of D(3) dopamine receptor (P19020 whole entry): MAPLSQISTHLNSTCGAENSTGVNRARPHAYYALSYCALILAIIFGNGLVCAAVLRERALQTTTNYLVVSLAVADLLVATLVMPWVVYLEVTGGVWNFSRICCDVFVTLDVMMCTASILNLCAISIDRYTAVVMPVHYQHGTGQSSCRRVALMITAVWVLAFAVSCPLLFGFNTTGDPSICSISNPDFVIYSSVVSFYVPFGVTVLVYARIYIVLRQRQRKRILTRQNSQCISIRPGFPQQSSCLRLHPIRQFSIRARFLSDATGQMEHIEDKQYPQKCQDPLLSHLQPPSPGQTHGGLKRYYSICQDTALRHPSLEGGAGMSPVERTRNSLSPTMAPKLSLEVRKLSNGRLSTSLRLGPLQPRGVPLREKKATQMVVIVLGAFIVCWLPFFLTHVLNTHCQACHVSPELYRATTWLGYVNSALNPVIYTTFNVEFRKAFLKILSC

SMILES	Hill coefficient [1]	Ki [2]	further results
CCCN(C/C=C/I)C1CCc2ccc(O)cc2C1 (racemic)	0.9		
O=C(CCCN1CCC2(CC1)C(=O)NCN2c1ccccc1)c1ccc(F)cc1 [SPIPERONE]	0.86	602 nM	
CC(C)NCC(O)COc1cccc2ccccc12 (racemic) [PROPRANOLOL]	0.99		
COc1cccc(OC)c1OCCNCC1COc2ccccc2O1 (configuration not stated)		2.68 nM	
NCCc1c[nH]c2ccc(O)cc12 [SEROTONIN]	1.04		
O=C(c1ccc(F)cc1)C1CCN(CCn2c(=O)[nH]c3ccccc3c2=O)CC1 [KETANSERIN]	1.04		
NCCc1ccc(O)c(O)c1 [DOPAMINE]		> 10000 nM	
CCCN(CCC)C1CCc2cccc(O)c2C1 (racemic) [8-OH-DPAT]	0.83		Ki [3]: 251 nM; Ki [4]: 0.91 nM
CCCN(C/C=C/I)C1CCc2cccc(O)c2C1 (racemic)	0.85	0.3 nM	Ki [5]: 1070 nM; Ki [3]: 125 nM
CCCN(CCC)C1CCc2ccc(O)cc2C1 (racemic)	0.82	72.7 nM	
